# Patent US20240336595A1, “BIFUNCTIONAL COMPOUNDS FOR DEGRADING BTK WITH DIMINISHED IMID ACTIVITY” (NURIX THERAPEUTICS, INC., priority 2021, published 2024)
# “Also recorded” adds a separate entry of the source.
# Key:
# [1] = system: collagen-induced arthritis (CIA) model; assay: Collagen-induced arthritis (CIA) model; assay type: in vivo; details: mouse CIA, daily oral 30 mg/kg
# Excerpt: Immunization with Collagen Type II (CII) in an adjuvant induces polyarthritis in rodents. This model known as the collagen-induced arthritis (CIA) model, is widely used for studying arthritis and resemble many aspect of the human disease. High level of anti-collagen II correlates with disease severity. In FIG. 1 CIA was induced by immunization with type II collagen in complete Freund's adjuvant on Day 0. A second boost was given on Day 21. Treatment with vehicle or therapeutic agents was initiated on Day 18 and continued to day 35. At the end of the study on Day 36, serum was collected. […] Significance of clinical arthritis score (A) was determined from the area under the curve (AUC) of mean paw scores calculated for individual mice. (C) Serum levels of anti-type II collagen IgG. Statistical significance was determined between vehicle control and treated groups with one-way Kruskal-Wallis ANOVA and Dunn's multiple comparisons test.
# [2] = system: MRL/lpr model; assay: MRL/lpr lupus model; assay type: in vivo, MRL/lpr mice
# Experimental: Dexamethasone was used as positive control.
# Statistical significance was determined between vehicle control and treated groups by ANOVA with Dunnett's post-hoc analysis.
# Glomeruli size is a quantitative measure that correlates well with the histopathological grade and severity of nephritis in this model. Statistical significance was determined between vehicle control and treated groups by ANOVA with Dunnett's post-hoc analysis (glomerulus diameter) or with a Kruskal-Wallis test with Dunn's post-hoc analysis (summed scores). * p<0.05, ** p<0.01, *** p<0.001**** p<0.0001.
# [3] = system: B cells compartment; assay: Dosing effect on B cells compartment (B cells, plasma cells); assay type: in vivo, C57BL/6 mice; details: 30 mg/kg in water bottle
# Experimental: A separate group of mice received vehicle formulation as control. Blood spleens and femurs for each treated mice were harvested at the end of the study. Peritoneal lavage was also performed with PBS to harvest peritoneal resident lymphocyte.
# It is plausible that Compound 1 affects one or multiple proteins that are involved either in generation or the survival of plasma cells and that this effect is independent from its ability to degrade the BTK protein. Left, representative dot plots showing the gating strategy to identify plasma cells in bone marrow. Right histograms showing cumulative data from multiple treated animals.
# (§1) An ordinary one-way ANOVA with Tukey's multiple comparisons test was performed, and all groups were compared to each other. * p<0.05, ** p<0.01,**** p<0.001. All comparisons without an asterisk were not significant.
# [4] = system: plasma cell generation; assay: Plasma cell generation upon NP-KLH immunization; assay type: in vivo, Mice
# Experimental: Mice were immunized by intraperitoneal injection of 200 μL of immunogen containing 100 μg NP-32-KLH (Biosearch Technologies, Cat. N-5060-25,Lot. 156285-01) and 1% Alum (Alhydrogel, 2%, Invivogen Cat. Vac-alu-250, Batch 0001715532, Exp. July 2022), prepared in phosphate buffered saline. Group 1 mice were not immunized and used as control. Mice in Group 2 to 5 were dosed orally once a day from Day 1 to Day 7 with compounds or vehicle for six additional days and then sacrificed the following day. Splenocytes and bone marrow were harvested 24 hours following the final dosing of compound on Day 7. Spleens harvested at the end of the study were dissociated, and red blood cells were lysed with ammonium-chloride-potassium (ACK) lysis buffer. 1 million cells per tissue were stained for each flow cytometry panel.
# Splenocytes were stained for lineage markers with fluorophore-conjugated antibodies and for NP hapten reactivity with NP-conjugated to phycoerythrin (NP-PE). Live single lymphocytes were gated for B cells (CD19+B220+) and then gated for IgD+ and IgD− B cells. IgD− B cells were then gated for germinal center B cells (Fas+GL-7+), and germinal center B cells were gated for NP+ cells on the basis of staining with NP-PE.
# as §1
# [5] = system: well-established arthritis; assay: Mouse model of well-established arthritis, clinical arthritis score; assay type: in vivo, male DBA/1 mice
# [6] = system: plasma cells; assay: Plasma cell counts in spleen and bone marrow, established arthritis model; assay type: in vivo, male DBA/1 mice
# Excerpt: (B) Spleens harvested at the end of the study were dissociated, and red blood cells were lysed with ammonium-chloride-potassium (ACK) lysis buffer. 1.5 million cells per spleen were stained for flow cytometry, and live single lymphocytes were gated for plasma cells (CD138+ IgD−). Plasma cells numbers were normalized to total B cells in spleen (CD19+B220+).
# (C) Bone marrow was isolated from femurs harvested at the end of the study, and samples were processed and analyzed as in (B).
# In (B) and (C), ordinary one-way ANOVAs with Dunnett's multiple comparisons tests were performed.
# [7] = Exposure in cerebrospinal fluid after a single oral dose; assay type: in vivo, Male C57BL/6 mice; details: mouse, single oral dose 300 mg/kg
# Experimental: Male C57BL/6 mice were administered Compound 1 orally at 300 mg/kg and 4, 8, or 24 hours after dosing CSF and plasma was collected from three mice per time point. The concentration of Compound 1 in CSF and plasma was determined by LC/MS/MS; free plasma concentration was calculated by multiplying total plasma concentration by the previously determined percentage of Compound 1 unbound to plasma protein.
# [8] = system: intracranial TMD8 tumors; assay: Intracranial TMD8 tumor model, tumor burden; assay type: in vivo, female CB.17 SCID mice; details: 90 mg/kg orally every day for twelve days, vs vehicle
# Excerpt: TMD8 is a human activated B cell (ABC)-type diffuse large B cell lymphoma (DLBCL) cell line that is dependent on BTK signaling for survival (Davis, R. E., Ngo, V. N., Lenz, G., Tolar, P., Young, R. M., Romesser, P. B., Staudt, L. M. (2010). Chronic active B-cell-receptor signalling in diffuse large B-cell lymphoma. Nature, 463(7277), 88-92. doi: 10.1038/nature08638).
# TMD8 cells were implanted into female CB.17 SCID mice by intracranial injection of 5E5 TMD8 cells. Treatment with compound 1 begun the following day. Mice were treated orally every day for twelve days with either vehicle or 90 mg/kg of Compound 1. Brains were then harvested, dissociated into single cell suspensions and BTK level in TMD8 cells was assessed by flow cytometry. TMD8 cells in dissociated brain tissue were identified by human-specific surface markers (CD20+HLA+) and total numbers of TMD8 cells per brain is reported in (A, tumor burden). Percent BTK remaining in TMD8 cells (B) was calculated according to the below formula: […]
# [9] = H&E-stained kidney tissue, end of study
smiles,measurement,setting,value
CN1CCN([C@@H]2CCCN(c3cnc(C(N)=O)c(Nc4ccc(C5CCN(CC6CCN(c7ccc(C(=O)N[C@H]8CCC(=O)NC8=O)nc7)CC6)CC5)cc4)n3)C2)C1=O [Compound 1],body weight,[1],minimal effect on body weight; also recorded: minimal body weight loss
same,mean arthritis score,[1]; Day 18 to day 35,significant benefit; also recorded: lower mean arthritis score than ibrutinib; also recorded: lower mean arthritis score than standard of care agents
same,"protein urine score, statistically significant reduction vs vehicle","[2]; 30 mg/kg, Urine Protein Score AUC",statistically significant reduction
same,anti-ds DNA autoantibody in end of study serum,"[2]; 30 mg/kg, vs vehicle",statistically significant reduction
same,overall summed histology score,[2]; [9],more effective than Ibrutinib
same,size of the glomeruli,[2]; [9],more effective than Ibrutinib
same,kidney disease,[2]; MRL/lpr model,significantly ameliorated kidney disease
same,urine protein score,"[2]; daily oral, starting at 10 weeks of age, dose dependence",dose-dependent reduction of urine protein score
same,plasma cells number in bone marrow,[3],significantly reduce
same,B cells percentage,"[3]; blood, spleens, peritoneum and bone marrow",does not significantly affect
same,generation of plasma cells upon immunization,"[4]; NP-KLH immunization, oral once a day Day 1 to Day 7",significantly decrease
same,germinal center formation,[4]; following NP-KLH immunization,do not affect
same,number of B cells in spleen,[4]; following NP-KLH immunization,do not affect
same,number of IgG1+ plasma cells in spleen,[4]; immunized mice,significantly decrease
same,number of total Plasma cells in spleen,[4]; immunized mice,significantly decrease
same,disease (clinical arthritis score),"[5]; 10 mg/kg or 30 mg/kg once daily oral, started after arthritis was established, to Arthritis Day 14",strongly suppressed disease
same,control of disease compared with comparators,"[5]; Compound 1 and ibrutinib 30 mg/kg, Enbrel 10 mg/kg i.p., tofacitinib 30 mg/kg twice daily, rilzabrutinib",more potently than anti-TNF-alpha blocking antibody (Enbrel) or BTK inhibitors rilzabrutinib and tofacitinib
same,"plasma cells in spleen, normalized to total B cells","[6]; 30 mg/kg, vs 30 mg/kg rilzabrutinib and ibrutinib",significantly fewer plasma cells than mice treated with an equivalent dose of BTK inhibitors
same,"plasma cells in spleen, normalized to total B cells","[6]; both doses (10 and 30 mg/kg), vs vehicle",significantly fewer plasma cells than vehicle-treated mice
same,plasma cell numbers in the bone marrow,[6]; vs vehicle and vs equivalent doses of rilzabrutinib and ibrutinib,significantly reduced plasma cell numbers
same,ability to cross the blood brain barrier,[7],crosses the blood brain barrier
same,exposure in cerebral spinal fluid (CSF),"[7]; 4, 8, 24 hours",demonstrates exposure in cerebral spinal fluid (CSF)
same,tumor burden (total TMD8 cells per brain),[8],reduced tumor burden
same,tumor burden (total TMD8 cells per brain),[8]; listed as compound 1,significantly reduced TMD8 tumor cells
